In ChEMBL document CHEMBL1201862, “PubChem BioAssay data set” (2004):
Values belong to the compound of their own block, whether it stands above or below them. Activity calls are given as the source filed them.

Experiments:
[1] = biological target: T1, Sentrin-specific protease 8 (Homo sapiens, UniProt Q96LD8); assay type: functional;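 further: luminescence read-out of SENP8 inhibition, dose-response confirmation following an ultra-high-throughput screen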
T1 sequence (Q96LD8 whole entry): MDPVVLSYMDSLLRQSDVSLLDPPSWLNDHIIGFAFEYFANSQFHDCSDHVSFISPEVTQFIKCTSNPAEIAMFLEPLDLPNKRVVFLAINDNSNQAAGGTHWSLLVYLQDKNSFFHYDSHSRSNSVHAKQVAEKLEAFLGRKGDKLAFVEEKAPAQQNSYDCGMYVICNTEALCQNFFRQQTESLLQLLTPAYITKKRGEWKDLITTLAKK

[2] = biological target: Phospholipase A2 (Homo sapiens, UniProt P04054); assay type: functional;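 further: confirmatory dose-response counterscreen on phospholipase A2, testing hits that came from an ultra-high-throughput screen for ATG4B inhibitors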
[3] = biological target: T2, Caspase-3 (Homo sapiens, UniProt P42574); assay type: functional;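 further: Dose-response selectivity test against caspase-3 for candidate inhibitors of sentrin-specific proteases (SENPs)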
T2 sequence (P42574 whole entry): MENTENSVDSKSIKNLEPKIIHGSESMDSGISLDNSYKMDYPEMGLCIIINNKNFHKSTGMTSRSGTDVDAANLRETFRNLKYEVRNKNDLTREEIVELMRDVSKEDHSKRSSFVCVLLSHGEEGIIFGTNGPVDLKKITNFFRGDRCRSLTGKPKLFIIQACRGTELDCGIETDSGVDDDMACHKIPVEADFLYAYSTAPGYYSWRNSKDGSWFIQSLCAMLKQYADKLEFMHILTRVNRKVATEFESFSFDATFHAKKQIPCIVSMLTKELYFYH

[4] = biological target: T3, Cysteine protease ATG4B (Homo sapiens, UniProt Q9Y4P1); assay type: functional;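 further: Fluorescence-based dose-response confirmation assay measuring inhibition of ATG4B activity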
T3 sequence (Q9Y4P1 whole entry): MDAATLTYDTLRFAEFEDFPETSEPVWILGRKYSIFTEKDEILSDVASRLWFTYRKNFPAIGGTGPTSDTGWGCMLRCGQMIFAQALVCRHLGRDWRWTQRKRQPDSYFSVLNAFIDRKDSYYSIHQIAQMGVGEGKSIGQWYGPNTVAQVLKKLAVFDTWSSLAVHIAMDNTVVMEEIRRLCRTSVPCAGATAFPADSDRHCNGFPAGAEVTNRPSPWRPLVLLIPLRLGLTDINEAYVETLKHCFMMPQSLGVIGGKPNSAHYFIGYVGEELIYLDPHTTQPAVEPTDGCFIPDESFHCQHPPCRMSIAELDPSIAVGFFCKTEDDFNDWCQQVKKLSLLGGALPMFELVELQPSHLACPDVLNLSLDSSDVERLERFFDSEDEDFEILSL

[5] = biological target: T4, Sentrin-specific protease 6 (Homo sapiens, UniProt Q9GZR1); assay type: functional;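 further: Luminescence-based dose-response confirmatory assay of SENP6 inhibition, following up an ultra-high-throughput screen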
T4 sequence (Q9GZR1 whole entry): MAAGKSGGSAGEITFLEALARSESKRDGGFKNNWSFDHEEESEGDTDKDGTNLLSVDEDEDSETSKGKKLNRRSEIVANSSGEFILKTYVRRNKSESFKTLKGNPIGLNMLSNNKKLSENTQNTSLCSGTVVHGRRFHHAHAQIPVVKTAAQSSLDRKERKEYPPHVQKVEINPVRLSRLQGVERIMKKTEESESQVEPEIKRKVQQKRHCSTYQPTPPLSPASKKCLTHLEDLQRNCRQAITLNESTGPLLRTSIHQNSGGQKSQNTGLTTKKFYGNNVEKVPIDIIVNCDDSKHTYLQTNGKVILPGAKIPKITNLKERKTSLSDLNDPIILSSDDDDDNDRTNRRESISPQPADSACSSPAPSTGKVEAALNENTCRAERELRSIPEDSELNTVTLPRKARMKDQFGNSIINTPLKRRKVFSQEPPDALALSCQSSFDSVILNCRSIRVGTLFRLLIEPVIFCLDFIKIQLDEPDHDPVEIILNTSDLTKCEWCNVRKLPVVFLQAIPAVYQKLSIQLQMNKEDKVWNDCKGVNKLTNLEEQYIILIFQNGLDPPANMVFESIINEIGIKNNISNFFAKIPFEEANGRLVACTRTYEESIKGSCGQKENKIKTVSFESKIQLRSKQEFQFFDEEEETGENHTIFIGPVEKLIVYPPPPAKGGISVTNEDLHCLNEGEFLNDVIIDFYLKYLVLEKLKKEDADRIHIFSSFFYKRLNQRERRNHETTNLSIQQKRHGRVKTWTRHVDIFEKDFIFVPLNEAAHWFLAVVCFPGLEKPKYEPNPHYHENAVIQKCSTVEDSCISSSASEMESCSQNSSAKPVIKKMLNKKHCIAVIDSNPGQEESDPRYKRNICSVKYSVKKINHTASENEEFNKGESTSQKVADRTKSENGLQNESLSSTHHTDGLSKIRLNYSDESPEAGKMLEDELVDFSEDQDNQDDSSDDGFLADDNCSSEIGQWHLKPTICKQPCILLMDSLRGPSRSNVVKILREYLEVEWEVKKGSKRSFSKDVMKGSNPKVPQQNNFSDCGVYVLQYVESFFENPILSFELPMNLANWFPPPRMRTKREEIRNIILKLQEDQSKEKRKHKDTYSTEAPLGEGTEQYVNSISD

[6] = biological target: T5, Sentrin-specific protease 7 (Homo sapiens, UniProt Q9BQF6); assay type: functional;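 further: Luminescence-based dose-response confirmation of ultra-high-throughput screening hits, measuring inhibition of SENP7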
T5 sequence (Q9BQF6 whole entry): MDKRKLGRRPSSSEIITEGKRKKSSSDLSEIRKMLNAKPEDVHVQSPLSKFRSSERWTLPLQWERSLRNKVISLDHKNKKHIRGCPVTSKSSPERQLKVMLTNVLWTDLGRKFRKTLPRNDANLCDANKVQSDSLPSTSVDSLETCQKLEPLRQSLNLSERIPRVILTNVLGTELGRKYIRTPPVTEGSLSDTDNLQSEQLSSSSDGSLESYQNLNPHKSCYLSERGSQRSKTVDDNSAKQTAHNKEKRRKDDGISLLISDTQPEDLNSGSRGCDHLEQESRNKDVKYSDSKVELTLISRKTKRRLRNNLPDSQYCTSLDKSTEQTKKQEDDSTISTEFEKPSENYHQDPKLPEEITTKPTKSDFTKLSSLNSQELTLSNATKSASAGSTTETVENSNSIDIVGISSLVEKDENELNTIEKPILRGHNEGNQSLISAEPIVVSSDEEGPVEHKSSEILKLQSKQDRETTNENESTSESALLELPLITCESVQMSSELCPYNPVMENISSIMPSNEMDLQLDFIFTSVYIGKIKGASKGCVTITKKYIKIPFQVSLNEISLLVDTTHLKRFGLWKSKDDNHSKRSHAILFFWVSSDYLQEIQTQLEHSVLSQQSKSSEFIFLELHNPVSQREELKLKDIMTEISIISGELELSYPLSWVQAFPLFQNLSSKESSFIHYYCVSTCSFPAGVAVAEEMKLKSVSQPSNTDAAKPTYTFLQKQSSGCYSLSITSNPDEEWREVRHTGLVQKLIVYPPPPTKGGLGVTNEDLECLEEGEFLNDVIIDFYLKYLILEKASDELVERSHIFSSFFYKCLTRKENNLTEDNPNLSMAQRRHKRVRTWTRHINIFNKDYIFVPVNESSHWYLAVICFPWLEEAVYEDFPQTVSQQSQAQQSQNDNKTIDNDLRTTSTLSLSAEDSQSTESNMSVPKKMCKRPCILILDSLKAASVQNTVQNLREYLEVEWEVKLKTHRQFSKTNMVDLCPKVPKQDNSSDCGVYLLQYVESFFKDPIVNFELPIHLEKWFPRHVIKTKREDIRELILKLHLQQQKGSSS

[7] = biological target: Cytochrome P450 2C9 (Homo sapiens, UniProt P11712)
[8] = biological target: Cytochrome P450 3A4 (Homo sapiens, UniProt P08684);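 further: CYP3A4 tested as one member of a cytochrome P450 panel screen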
[9] = biological target: T6, Calpain-2 catalytic subunit (Sus scrofa, UniProt P43367); test: m-calpain protease blockers, concentration series – biochemical, fluorogenic peptide substrate, dose response (AID 1420); assay type: functional
T6 sequence (P43367 whole entry): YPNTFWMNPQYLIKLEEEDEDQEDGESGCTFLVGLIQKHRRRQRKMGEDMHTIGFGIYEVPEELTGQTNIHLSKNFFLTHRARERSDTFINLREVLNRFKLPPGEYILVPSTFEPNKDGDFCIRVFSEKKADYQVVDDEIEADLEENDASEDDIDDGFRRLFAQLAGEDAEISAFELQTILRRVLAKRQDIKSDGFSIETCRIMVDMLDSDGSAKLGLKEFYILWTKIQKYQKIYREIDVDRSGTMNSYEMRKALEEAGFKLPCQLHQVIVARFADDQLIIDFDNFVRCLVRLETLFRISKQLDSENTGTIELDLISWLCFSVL

[10] = biological target: T7, Coagulation factor XII (Homo sapiens, UniProt P00748); assay type: functional;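 further: activated factor XIIa alpha cleaving a fluorogenic AMC peptide substrate; inhibitor potency from loss of enzyme activity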
T7 sequence (P00748 whole entry): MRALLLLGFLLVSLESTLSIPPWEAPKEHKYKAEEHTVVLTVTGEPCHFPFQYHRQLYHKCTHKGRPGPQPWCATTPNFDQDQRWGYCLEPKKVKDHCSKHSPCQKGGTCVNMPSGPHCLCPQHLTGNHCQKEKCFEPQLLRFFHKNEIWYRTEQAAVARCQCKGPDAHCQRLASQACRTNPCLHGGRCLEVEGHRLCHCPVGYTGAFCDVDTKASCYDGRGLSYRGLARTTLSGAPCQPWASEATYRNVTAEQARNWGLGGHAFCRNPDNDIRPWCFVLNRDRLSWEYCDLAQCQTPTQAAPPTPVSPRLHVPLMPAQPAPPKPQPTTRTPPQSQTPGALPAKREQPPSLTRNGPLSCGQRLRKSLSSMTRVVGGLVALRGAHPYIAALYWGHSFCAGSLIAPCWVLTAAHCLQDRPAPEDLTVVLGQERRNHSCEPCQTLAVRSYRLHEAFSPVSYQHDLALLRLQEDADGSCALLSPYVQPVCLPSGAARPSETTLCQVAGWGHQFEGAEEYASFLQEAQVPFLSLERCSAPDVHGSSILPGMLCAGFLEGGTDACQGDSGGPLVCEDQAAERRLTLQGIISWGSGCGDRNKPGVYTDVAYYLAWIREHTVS

[11] = Luminescence Cell-Based Dose Retest to Confirm Inhibitors of Cancer Stem Cells. [Related pubchem assays (depositor defined):AID2717, AID2721]; assay type: functional; settings: Homo sapiens
[12] = biological target: Heat shock protein HSP 90-alpha (Homo sapiens, UniProt P07900); assay type: functional, organism-based
[13] = biological target: T8, Cytochrome P450 1A2 (Homo sapiens, UniProt P05177);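 further: PubChem cytochrome P450 panel assay, CYP1A2 panel member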
T8 sequence (P05177 whole entry): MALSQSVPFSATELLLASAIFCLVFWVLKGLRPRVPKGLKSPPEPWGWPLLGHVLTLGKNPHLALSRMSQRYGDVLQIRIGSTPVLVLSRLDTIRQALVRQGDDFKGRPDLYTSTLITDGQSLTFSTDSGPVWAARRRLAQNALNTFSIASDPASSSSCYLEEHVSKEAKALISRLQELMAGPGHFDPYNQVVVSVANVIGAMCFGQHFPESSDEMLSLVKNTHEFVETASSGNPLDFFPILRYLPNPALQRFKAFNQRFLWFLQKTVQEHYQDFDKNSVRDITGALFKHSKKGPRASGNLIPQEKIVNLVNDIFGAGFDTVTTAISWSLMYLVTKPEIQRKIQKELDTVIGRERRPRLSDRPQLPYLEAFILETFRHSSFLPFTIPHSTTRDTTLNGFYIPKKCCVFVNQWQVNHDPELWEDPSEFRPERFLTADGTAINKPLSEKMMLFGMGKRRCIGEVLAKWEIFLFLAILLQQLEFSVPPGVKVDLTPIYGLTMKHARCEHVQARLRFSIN

[14] = biological target: Dual specificity tyrosine-phosphorylation-regulated kinase 1A (Rattus norvegicus, UniProt Q63470); assay type: biochemical, Homo sapiens
[15] = tested on: HEK293; test: cells; settings: Homo sapiens;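 further: cells exposed to compound for 14 hours overnight before viability readout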
[16] = biological target: Tumor necrosis factor (Homo sapiens, UniProt P01375); test: analog potency on TNFa NF-kB signaling – cell-based, revised, SAR follow-up (AID 2337); assay type: functional
[17] = tested on: SN12K1; test: cells; assay type: functional; settings: Homo sapiens
[18] = tested on: P388/ADR; test: cells; assay type: functional; settings: Mus musculus
[19] = tested on: P388; test: cells; assay type: functional; settings: Mus musculus

Sequence of Cytochrome P450 3A4 (P08684 whole entry): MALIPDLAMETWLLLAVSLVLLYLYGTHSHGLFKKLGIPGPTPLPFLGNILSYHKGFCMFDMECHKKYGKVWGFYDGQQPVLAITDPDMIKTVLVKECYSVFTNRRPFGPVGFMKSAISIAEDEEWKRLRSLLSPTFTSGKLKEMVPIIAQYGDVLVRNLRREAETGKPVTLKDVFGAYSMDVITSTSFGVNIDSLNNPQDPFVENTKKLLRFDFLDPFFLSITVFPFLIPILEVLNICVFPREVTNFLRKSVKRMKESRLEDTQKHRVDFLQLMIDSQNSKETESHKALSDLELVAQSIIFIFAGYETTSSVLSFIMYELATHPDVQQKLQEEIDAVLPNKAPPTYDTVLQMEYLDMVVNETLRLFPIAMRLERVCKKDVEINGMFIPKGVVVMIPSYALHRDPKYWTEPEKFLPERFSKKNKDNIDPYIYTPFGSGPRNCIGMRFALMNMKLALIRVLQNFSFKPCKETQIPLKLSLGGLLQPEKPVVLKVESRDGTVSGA
Sequence of Tumor necrosis factor (P01375 whole entry): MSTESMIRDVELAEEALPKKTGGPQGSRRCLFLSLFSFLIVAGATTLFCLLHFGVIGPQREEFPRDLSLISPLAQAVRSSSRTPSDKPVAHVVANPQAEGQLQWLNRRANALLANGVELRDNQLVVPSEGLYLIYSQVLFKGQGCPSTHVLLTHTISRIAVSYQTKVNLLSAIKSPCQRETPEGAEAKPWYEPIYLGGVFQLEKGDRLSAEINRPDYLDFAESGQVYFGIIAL
Sequence of Phospholipase A2 (P04054 whole entry): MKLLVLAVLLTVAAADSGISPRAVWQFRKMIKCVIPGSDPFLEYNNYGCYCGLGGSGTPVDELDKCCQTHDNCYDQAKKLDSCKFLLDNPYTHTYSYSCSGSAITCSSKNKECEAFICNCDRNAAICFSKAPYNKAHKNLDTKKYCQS
Sequence of Cytochrome P450 2C9 (P11712 whole entry): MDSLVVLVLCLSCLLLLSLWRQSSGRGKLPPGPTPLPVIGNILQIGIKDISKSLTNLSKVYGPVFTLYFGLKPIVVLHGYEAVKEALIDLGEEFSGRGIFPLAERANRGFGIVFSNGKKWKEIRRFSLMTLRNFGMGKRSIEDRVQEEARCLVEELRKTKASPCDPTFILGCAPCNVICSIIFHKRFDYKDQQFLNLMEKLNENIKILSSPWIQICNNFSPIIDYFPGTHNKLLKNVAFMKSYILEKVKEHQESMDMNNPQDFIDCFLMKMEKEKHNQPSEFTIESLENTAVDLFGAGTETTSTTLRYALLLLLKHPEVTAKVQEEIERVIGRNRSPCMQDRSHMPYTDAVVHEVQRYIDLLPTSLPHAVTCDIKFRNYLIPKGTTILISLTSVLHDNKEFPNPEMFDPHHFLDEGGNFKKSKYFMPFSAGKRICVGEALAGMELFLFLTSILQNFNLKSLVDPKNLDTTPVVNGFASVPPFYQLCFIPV

IC50 [2]: 7.21 µM (active) | IC50 [3]: 17.7 µM (active) | IC50 [4]: 14.5 µM (active) | IC50 [5]: 14.6 µM (active) | IC50 [6]: 5.03 µM (active)
Structure (SMILES): Cc1ccc(-c2nnc(SCc3ccccc3F)o2)cc1
IC50 [1]: 21.4 µM (active)

Structure (SMILES): COc1ccc2c(c1)CN([C@H](C)[C@@H]1CC[C@@H]3[C@H]4CC[C@H]5C[C@@H](O)CC[C@@]5(C)[C@H]4CC[C@]31C)CO2
AC50 [7]: 7.94 µM (inconclusive) | AC50 [8]: inconclusive

Structure (SMILES): Cc1c(C(=O)N(Cc2ccccc2)Cc2cccs2)cnn1-c1ccc(Cl)cc1
IC50 [9]: 4.66 µM (not active) | IC50 [10]: > 50 µM (inactive) | AC50 [11]: 1.77 µM (active) | AC50 [12]: 3.44 µM (active)

AC50 [8]: inconclusive
Structure (SMILES): Cc1cccc(NC(=O)C2(c3ccccc3)CC2(Cl)Cl)c1 (centres undefined)

AC50 [8]: inconclusive | AC50 [13]: 10 µM (inconclusive)
Structure (SMILES): COc1ccc(-c2nc3cnc(N4CCN(C)CC4)nc3n(Cc3ccc(F)cc3)c2=O)cc1

AC50 [14]: 3.68 µM (active)
Structure (SMILES): COc1ccc(/C=C/C(=O)Nc2cccc(C(C)=O)c2)cc1

Structure (SMILES): CN(C)c1ccc(NC(=O)c2ccc(CN3CCc4ccccc43)cc2)cc1
IC50 [15]: > 20 µM (inactive) | IC50 [16]: 5.37 µM (active)

Structure (SMILES): CCN(CC)CCNC(=O)C1COc2ccc(-c3cc(=O)c4ccccc4o3)cc2O1 (centres undefined)
GI50 [17]: 16.8 µM (inactive) | GI50 [18]: 12.3 µM (inactive) | GI50 [19]: 0.29 µM (active)

Structure (SMILES): COc1cc2c(cc1OC)C(Cl)C(c1ccc(Br)cc1)=C2Cl (centres undefined)
GI50 [17]: 15.6 µM (inactive) | GI50 [18]: 3.78 µM (inactive) | GI50 [19]: 3.94 µM (inactive)

Structure (SMILES): CCOC(=O)/C(O)=C1\C(=O)N(C)C(=O)C1c1cccc(OC)c1 (centres undefined)
GI50 [17]: > 100 µM (inactive) | GI50 [18]: > 100 µM (inactive) | GI50 [19]: > 100 µM (inactive)

Structure (SMILES): O=S(=O)(O)c1cc(/N=[N+](\[O-])c2ccc(/N=N/c3ccccc3)cc2S(=O)(=O)O)ccc1/C=C/c1ccc(/N=[N+](\[O-])c2ccc(/N=N/c3ccccc3)cc2S(=O)(=O)O)cc1S(=O)(=O)O
GI50 [17]: > 31.6 µM (inactive) | GI50 [19]: > 100 µM (inactive)
